Where two headings read alike, the source gives them in different places. One block for each compound: values may come before it.
What was measured:
patients with SMP [1] = assay: Intravenous phentolamine block in patients with SMP; format: in vivo, human
Experimental: If peripheral α-adrenergic receptors are blocked completely, skin temperature would approach core temperature. Such a blockage would produce profound hypotension and a reflex tachycardia. […] This dose ranged from 35 mg to 45 mg over a 30 minute period.
The heart rate, systolic and diastolic blood pressure changes produced by phentolamine in a typical patient were relatively mild. In the first seven patients phentolamine alone was administered.
The patient was diagnosed as having SMP and then underwent local LABSG, and the administration of phentolamine systemically by intravenous injection.
Seventeen patients received both phentolamine and LABSG. The time of maximum relief of stimulus evoked pain correlated highly with the time at which there was maximum relief of stimulus-independent pain. All pain scores were converted to percent pain relief. The peak relief of stimulus independent pain for the LABSG compares favorably to the peak relief obtained from the phentolamine block. […] Patients with less than 50% pain relief from both procedures were considered to have pain independent of SMP. There was a high correlation of the results of the two procedures (r=0.78).

patients with SMP [2] = conditions: cited from earlier work; for effect on pain in patients with SMP: in vivo
α1 and α2 receptors = conditions: cited from earlier work
healthy control subjects = assay: Intradermal norepinephrine and phenylephrine in normal skin of control subjects; format: in vivo, human
Experimental: Five normal subjects were used as controls.
Effects of Intradermal Norepinephrine and Phenylephrine: In two patients, intradermal injections of the non-specific α-adrenergic agonist norepinephrine (5 μg in 10 μl normal saline) or the α-adrenergic agonist phenylephrine (10 μg in 10 μl normal saline) were made at a patch site immediately after removing the patch. […] All injection were made in a single-blinded fashion. The patients and control subjects were instructed to rate the magnitude of any evoked pain and resultant hyperalgesia on a verbal scale from 0 to 10.

patients with SMP [3] = assay: Intradermal norepinephrine and phenylephrine in SMP patients (clonidine patch site, normal site)
Experimental: Effects of Intradermal Norepinephrine and Phenylephrine: In two patients, intradermal injections of the non-specific α-adrenergic agonist norepinephrine (5 μg in 10 μl normal saline) or the α-adrenergic agonist phenylephrine (10 μg in 10 μl normal saline) were made at a patch site immediately after removing the patch. Norepinephrine and phenylephrine injections were also made at control sites on the patients' normal limb and into the normal skin of 4 healthy control subjects. […] All injection were made in a single-blinded fashion. The patients and control subjects were instructed to rate the magnitude of any evoked pain and resultant hyperalgesia on a verbal scale from 0 to 10.

[4] = in vivo; cited from earlier work
normal subject = system: normal subject
Experimental: Five normal subjects were used as controls. One subject was used to investigate the effect of clonidine on normal skin (i.e., the top of the foot). The four remaining subjects were used to assess the effect of intradermal norepinephrine and phenylephrine in normal skin.
To exclude further local anesthetic effects of clonidine, a clonidine patch was applied to the top of a normal subject's foot and sensory testing was performed prior to and 40 hours after the patch application.

Source text for patients with SMP or SIP: Patient Selection and Control Subjects: Six normotensive patients with chronic ongoing pain and cutaneous hyperalgesia to mechanical and cooling stimuli following soft tissue or nerve trauma were examined. All patients had previously undergone sympathetic blocks (i.e., local anesthetic blockade of the appropriate sympathetic ganglia) to assess the involvement of the sympathetic nerves in their pain state.
A series of 2-7 patches were applied consecutively to different sites within the hyperalgesic zone. Each patch was left in place for 2-10 days within this affected zone. Prior to, during and immediately after drug application, the following parameters were monitored: heart rate, blood pressure, ongoing pain and pain to mechanical and cold stimuli.
The scale consisted of a 100 mm line where “no pain” and “most intense pain” were indicated on the left and right ends of the scale respectively. […] The mechanical stimuli included innocuous brushing with a camel's hair brush and innocuous pressure from the 206 g weight of a 13 mm diameter (i.e., 2N) brass probe. Pain thresholds to mechanical stimuli were determined in the area within and surrounding the patch sites using calibrated von Frey filaments. The cooling stimulus consisted of small drops of acetone lightly placed onto the patient's skin. […] 3) Tactile sensibility: To rule out local anesthetic effects, the detection (touch) thresholds were determined in the area within the surrounding selected patch sites using calibrated von Frey filaments. In addition, the patient's ability to distinguish the blunt from the sharp ends of a pin was also assessed. The patients were instructed to close their eyes during the hyperalgesia and von Frey threshold testing procedures.

SMILES: CC(C)NCC(O)COc1cccc2ccccc12 (stereo not shown) [propranolol]
effect on pain when added after α-adrenergic blockade (patients with SMP [1]; 0.5 mg intravenously, five minutes after last phentolamine dose): did not add appreciably to the analgesia | effect on pain in patients with SMP (patients with SMP [2]): little effect on SMP

SMILES: CC(COc1ccccc1)N(CCCl)Cc1ccccc1 (stereo not shown) [phenoxybenzamine]
potency in blocking α1 (postsynaptic) receptors relative to α2 receptors (α1 and α2 receptors): approximately 100 fold | effect on pain in patients with SMP (patients with SMP [2]): can be effective in relieving pain

SMILES: CNC[C@H](O)c1cccc(O)c1 [phenylephrine]
pain and hyperalgesia after injections (healthy control subjects; control subjects, phenylephrine 10 μg): Only brief, mild pain sensations and no hyperalgesia | pain evoked at control site (volar forearm) (patients with SMP [3]; Case 4): moderate pain of shorter duration | ongoing level of pain (patients with SMP [3]; Case 4, approximately 25 minutes after injection): increased substantially | pain evoked by injection at clonidine patch site (patients with SMP [3]; Case 4, intradermal 10 μg in 10 μl saline, after 3 days of clonidine): intense stinging pain

SMILES: NC[C@H](O)c1ccc(O)c(O)c1 [norepinephrine]
pain and hyperalgesia after intradermal injection into the leg (healthy control subjects; four control subjects, norepinephrine 5 μg): mild, short lasting pain and no hyperalgesia | pain or hyperalgesia in normal subjects (patients with SMP [2]; intradermal injection): does not cause pain or hyperalgesia | effect on pain and hyperalgesia relieved by sympathectomy or sympathetic block (patients with SMP [2]; intradermal injection, patients): rekindles the pain and hyperalgesia | pain evoked by injection at clonidine patch site (patients with SMP [3]; Case 1, intradermal 5 μg in 10 μl saline): intense, burning pain sensation | mechanical hyperalgesia rating at the patch site (patients with SMP [3]; Case 1, twenty-five minutes after injection): 3.5 out of 10 | pain and hyperalgesia after injection into normal limb (patients with SMP [3]; Cases 1 and 4, normal limb): evoked intense pain, but did not result in hyperalgesia

SMILES: COc1cc2nc(N3CCN(C(=O)c4ccco4)CC3)nc(N)c2cc1OC [prazosin]
receptor subtype selectivity (α1 and α2 receptors): highly selective α1-blocking agent | effect on pain in patients with SMP (patients with SMP [2]): can be effective in relieving pain

pulse rate change (patients with SMP [1]; patients pretreated with propranolol 1-2 mg): minimal increase
SMILES: Cc1ccc(N(CC2=NCCN2)c2cccc(O)c2)cc1 [phentolamine]
pain relief following the blocks (local anesthetic sympathetic ganglion block, i.v. phentolamine) (patients with SMP [1]; Example 3 cases 1-4 (case 2 had no phentolamine block)): 70-100% | effect of block on pain (patients with SMP [1]; Example 3 cases 5, 6 (SIP)): not affected | side effect: dizziness (patients with SMP [1]; IV phentolamine): 2 patients | side effect: headache (patients with SMP [1]; IV phentolamine): 3 patients | side effect: nasal stuffiness (patients with SMP [1]; IV phentolamine): 12 patients | pain relief in patients with SMP (preliminary studies) (patients with SMP [1]; cumulative dose 35 mg to 45 mg over a 30 minute period): effectively relieved pain | heart rate change (patients with SMP [1]; first seven patients, phentolamine alone): increased moderately | time for pain to return to within 75% of baseline (patients with SMP [1]; five patients with more than 50% pain relief from phentolamine block): 2 to 7 h | pain relief with the phentolamine block (patients with SMP [1]; one patient with 45% maximum relief with LABSG): no relief | mean pain relief (patients with SMP [1]; patients who had 50% or greater pain relief following LABSG): 75% | reduction in pain as measured by visual analysis scores (patients with SMP [1]; person, SMP right foot, IV, accumulated dose of 25 mg over 15 minutes): 80% | time course over which pain gradually returned (patients with SMP [1]; same patient): about three | time pain remained at low level (patients with SMP [1]; same patient, after last phentolamine dose): about two | patient's pain relieved (patients with SMP [1]; same patient, after two further injections each of 10 mg): over 80% | gradual decrease in stimulus-independent pain (patients with SMP [1]; same patient, first 4 boli IV, total dose 15 mg): about 50% | blood pressure change (patients with SMP [1]; supine, with or without propranolol): little effected | potency in inhibiting α1- relative to α2-adrenergic receptors (α1 and α2 receptors): three to five | plasma half-life [4]: approximately 20 minutes | effect on sympathetically-maintained pain and hyperalgesia (patients with SMP [2]; intravenous administration): rapidly abolishes sympathetically-maintained pain and hyperalgesia

SMILES: Clc1cccc(Cl)c1N=C1NCCN1 [clonidine]
detection or pain threshold to mechanical stimuli in a normal subject (normal subject; Example 2, test for local anesthetic effect): did not alter | pain and detection threshold to von Frey filaments (normal subject; top of normal subject's foot, 40 hours after patch application): Neither the pain nor detection threshold to von Frey filaments were affected | time to reduction of pain evoked by deep pressure, light brushing and cooling stimuli (patient with SMP; after patch application): 24 to 36 h | time to complete abolition of evoked pain (patient with SMP; following patch application): ≤ 48 h | persistence of effect after removal of the patch (patient with SMP; human, in vivo): more than 24 hours | adverse side effects, cardiovascular parameters (patient with SMP; same patient): no adverse side effects or changes in cardiovascular parameters | hyperalgesia of skin surrounding the patch (patient with SMP; same patient): remained hyperalgesic | relief of hyperalgesia in the skin underlying the patch (patient with SMP; sciatic nerve injury patient, 0.2 or 0.3 mg/day patch, 6 patches, 2-10 days each): Complete relief | detection threshold to mechanical stimuli in the patient (patient with SMP; test for local anesthetic effect): did not alter | mechanical detection thresholds inside and outside the patch site (patients with SMP or SIP; Case 1): identical | pain threshold to von Frey filaments within the patch site (patients with SMP or SIP; Case 1): approximated the patient's ‘normal’ pain threshold | ratings of stimulus-independent pain (patients with SMP or SIP; Case 1): not affected | time hyperalgesia still absent after removing a patch (patients with SMP or SIP; Case 1): at least 12 hours | Mechanical Hyperalgesia: post-clonidine (patients with SMP or SIP; Case 1, SMP, lower extremity): − | Touch Detection Threshold: post-clonidine (patients with SMP or SIP; Case 1, SMP, pre-clonidine 4): 4 bars | ability to distinguish sharp from blunt stimuli (patients with SMP or SIP; Case 1, after patch removal): not affected | mechanical (brush, pressure) and cooling (acetone) stimuli at patch site (patients with SMP or SIP; Case 1, after removal of patch applied for 36 hours): detected but were not painful | pain rating to light brushing at patch site (patients with SMP or SIP; Case 1, after removal of patch, before norepinephrine injection, untreated skin 4 out of 10): 1 out of 10 | detection thresholds (patients with SMP or SIP; Case 1, four patches (FIG. 2)): unchanged | hyperalgesia to mechanical stimuli (patients with SMP or SIP; Case 1, four patches with quantitative sensory testing (FIG. 2)): greatly reduced and, in many cases, completely eliminated | return of hyperalgesia (patients with SMP or SIP; Case 1, from patch application): within less than a week | time to reduction of mechanical hyperalgesia after patch applied (patients with SMP or SIP; Case 1, noted by patient): 36 to 48 h | Mechanical Hyperalgesia: post-clonidine (patients with SMP or SIP; Case 2, SMP, lower extremity): − | Touch Detection Threshold: post-clonidine (patients with SMP or SIP; Case 2, SMP, pre-clonidine 1): 1 bars | Touch Detection Threshold: post-clonidine (patients with SMP or SIP; Case 3, SMP, pre-clonidine 1.5): 1.5 bars | reduction of ongoing pain (patients with SMP or SIP; Case 4): 50-75% | Mechanical Hyperalgesia: post-clonidine (patients with SMP or SIP; Case 4, SMP, face): − | Touch Detection Threshold: post-clonidine (patients with SMP or SIP; Case 4, SMP, pre-clonidine 0.5): 0.5 bars | relief of hyperalgesia throughout entire affected zone (patients with SMP or SIP; Case 4, application to the upper lip): complete relief of hyperalgesia | Mechanical Hyperalgesia: post-clonidine (patients with SMP or SIP; Case 5, SIP, upper extremity): + | hyperalgesia and ongoing pain (patients with SMP or SIP; Case 5, SIP, application to palmar aspect of the hand): Neither the patient's hyperalgesia nor ongoing pain were improved | Touch Detection Threshold: post-clonidine (patients with SMP or SIP; Case 5, SIP, pre-clonidine 1): 1 bars | hyperalgesia to cold stimuli (patients with SMP or SIP; Case 6, SIP): not affected | Mechanical Hyperalgesia: post-clonidine (patients with SMP or SIP; Case 6, SIP, lower extremity): + | reduction in ongoing pain and mechanical hyperalgesia to brush stimuli (patients with SMP or SIP; Case 6, SIP, patches on dorsum of the foot): approximately 35% | Touch Detection Threshold: post-clonidine (patients with SMP or SIP; Case 6, SIP, pre-clonidine 2): 2 bars | overall level of stimulus-independent pain (patients with SMP or SIP; Cases 2, 3): did not report any reduction | extent of hyperalgesia relief (patients with SMP or SIP; Cases 2, 3, zone greater than half of lower extremity): only eliminated hyperalgesia at or near the site of drug application | alteration in blood pressure or heart rate (patients with SMP or SIP; any of the patients): No appreciable alteration | pain or hyperalgesia (summary) (patients with SMP or SIP; cases 5 and 6, pain independent of the sympathetics): little effect on pain or hyperalgesia | skin reaction surrounding the patch site (patients with SMP or SIP; following some patch applications, treatment discontinued in cases 1, 4): erythematous rash | mechanical and cold hyperalgesia at the site of drug administration (summary) (patients with SMP or SIP; patients with SMP): significantly reduced mechanical and cold hyperalgesia | side effects from clonidine patches (patients with SMP or SIP; six patients): minor

Reference: patent USRE41998E1, “Compositions and methods of treatment of sympathetically maintained pain” (Arclon Therapeutics, Inc., priority 1990, dated 2010)
